Values after ≈ are worked out from the molar mass of the structure shown.
Legend:
Staphylococcus aureus [1] = experiment: Antibacterial activity against methicillin-resistant Staphylococcus aureus M17 incubated for 16 to 20 hrs by broth microdilution method; format: functional; settings: time 16-20 hrs
Staphylococcus aureus [2] = experiment: Antibacterial activity against methicillin-resistant Staphylococcus aureus M22 incubated for 16 to 20 hrs by broth microdilution method; format: functional; settings: time 16-20 hrs
Staphylococcus aureus [3] = experiment: Antibacterial activity against methicillin-resistant Staphylococcus aureus M21 incubated for 16 to 20 hrs by broth microdilution method; format: functional; settings: time 16-20 hrs
Escherichia coli = experiment: Antibacterial activity against Escherichia coli ATCC 25922 incubated for 16 to 20 hrs by broth microdilution method; format: functional; settings: time 16-20 hrs
Staphylococcus aureus [4] = experiment: Antibacterial activity against methicillin-resistant Staphylococcus aureus M14 incubated for 16 to 20 hrs by broth microdilution method; format: functional; settings: time 16-20 hrs
Staphylococcus aureus [5] = experiment: Antibacterial activity against methicillin-resistant Staphylococcus aureus M13 incubated for 16 to 20 hrs by broth microdilution method; format: functional; settings: time 16-20 hrs
Staphylococcus aureus [6] = experiment: Antibacterial activity against methicillin-resistant Staphylococcus aureus M11 incubated for 16 to 20 hrs by broth microdilution method; format: functional; settings: time 16-20 hrs
Staphylococcus aureus [7] = experiment: Antibacterial activity against methicillin-resistant Staphylococcus aureus M23 incubated for 16 to 20 hrs by broth microdilution method; format: functional; settings: time 16-20 hrs
Staphylococcus aureus [8] = experiment: Antibacterial activity against methicillin-resistant Staphylococcus aureus M16 incubated for 16 to 20 hrs by broth microdilution method; format: functional; settings: time 16-20 hrs
Staphylococcus aureus [9] = experiment: Antibacterial activity against methicillin-resistant Staphylococcus aureus M12 incubated for 16 to 20 hrs by broth microdilution method; format: functional; settings: time 16-20 hrs
Staphylococcus aureus [10] = experiment: Antibacterial activity against Staphylococcus aureus ATCC 29213 incubated for 16 to 20 hrs by broth microdilution method; format: functional; settings: time 16-20 hrs
Staphylococcus aureus [11] = experiment: Antibacterial activity against methicillin-resistant Staphylococcus aureus M20 incubated for 16 to 20 hrs by broth microdilution method; format: functional; settings: time 16-20 hrs
[12] = Hemolytic activity against sheep erythrocytes; format: toxicity, cell-based, Ovis aries, Erythrocyte

SMILES	MIC (Staphylococcus aureus [1])	MIC (Staphylococcus aureus [2])	MIC (Staphylococcus aureus [3])	MIC (Escherichia coli)	MIC (Staphylococcus aureus [4])	MIC (Staphylococcus aureus [5])	MIC (Staphylococcus aureus [6])	MIC (Staphylococcus aureus [7])	MIC (Staphylococcus aureus [8])	MIC (Staphylococcus aureus [9])	MIC (Staphylococcus aureus [10])	MIC (Staphylococcus aureus [11])	HC50 [12]
CC(C)=CCc1c(OCCCCCSc2cc[n+](CC(=O)N(C(C)C)C(C)C)cc2)ccc2ccc(=O)oc12.[Br-]	2 µg/mL	2 µg/mL	2 µg/mL	> 128 µg/mL	2 µg/mL	4 µg/mL	1 µg/mL	2 µg/mL	4 µg/mL	4 µg/mL	2 µg/mL	2 µg/mL	> 160 µg/mL
CC(C)=CCc1c(OCCCCSc2cc[n+](CC(=O)N(C(C)C)C(C)C)cc2)ccc2ccc(=O)oc12.[Br-]	2 µg/mL	2 µg/mL	2 µg/mL	> 128 µg/mL	2 µg/mL	4 µg/mL	1 µg/mL	2 µg/mL	2 µg/mL	4 µg/mL	2 µg/mL	1 µg/mL	> 160 µg/mL
CCCCCCNC(=O)C[n+]1ccc(SCCCCOc2ccc3ccc(=O)oc3c2CC=C(C)C)cc1.[Br-]	1 µg/mL	2 µg/mL	2 µg/mL	32 µg/mL	1 µg/mL	2 µg/mL	1 µg/mL	2 µg/mL	2 µg/mL	2 µg/mL	1 µg/mL	1 µg/mL	> 160 µg/mL
CCCNC(=O)C[n+]1ccc(SCCCCCOc2ccc3ccc(=O)oc3c2CC=C(C)C)cc1.[Br-]	8 µg/mL	8 µg/mL	8 µg/mL	> 128 µg/mL	2 µg/mL	8 µg/mL	2 µg/mL	4 µg/mL	2 µg/mL	8 µg/mL	2 µg/mL	2 µg/mL	190 µg/mL
CC(C)=CCc1c(OCCCSc2cc[n+](CC(=O)N3CCOCC3)cc2)ccc2ccc(=O)oc12.[Br-]	64 µg/mL	32 µg/mL	32 µg/mL	> 128 µg/mL	64 µg/mL	128 µg/mL	32 µg/mL	128 µg/mL	64 µg/mL	128 µg/mL	128 µg/mL	64 µg/mL	> 160 µg/mL
CCCCNC(=O)C[n+]1ccc(SCCCCOc2ccc3ccc(=O)oc3c2CC=C(C)C)cc1.[Br-]	4 µg/mL	4 µg/mL	4 µg/mL	> 128 µg/mL	2 µg/mL	4 µg/mL	2 µg/mL	4 µg/mL	2 µg/mL	4 µg/mL	8 µg/mL	2 µg/mL	> 160 µg/mL
CC(C)=CCc1c(OCCCSc2cc[n+](CC(=O)N(C)c3ccccc3)cc2)ccc2ccc(=O)oc12.[Br-]	8 µg/mL	8 µg/mL	8 µg/mL	> 128 µg/mL	4 µg/mL	16 µg/mL	4 µg/mL	8 µg/mL	8 µg/mL	16 µg/mL	8 µg/mL	4 µg/mL	> 160 µg/mL
CCCCCCNC(=O)C[n+]1ccc(SCCCOc2ccc3ccc(=O)oc3c2CC=C(C)C)cc1.[Br-]	4 µg/mL	4 µg/mL	4 µg/mL	64 µg/mL	2 µg/mL	4 µg/mL	2 µg/mL	2 µg/mL	4 µg/mL	4 µg/mL	1 µg/mL	2 µg/mL	> 160 µg/mL
CC(C)=CCc1c(OCCCCSc2cc[n+](CC(=O)N3CCOCC3)cc2)ccc2ccc(=O)oc12.[Br-]	32 µg/mL	32 µg/mL	32 µg/mL	> 128 µg/mL	32 µg/mL	64 µg/mL	32 µg/mL	32 µg/mL	32 µg/mL	64 µg/mL	32 µg/mL	32 µg/mL	> 160 µg/mL
CC(C)=CCc1c(OCCCSc2cc[n+](CC(=O)N(CC(C)C)CC(C)C)cc2)ccc2ccc(=O)oc12.[Br-]	4 µg/mL	2 µg/mL	2 µg/mL	> 128 µg/mL	2 µg/mL	4 µg/mL	1 µg/mL	2 µg/mL	2 µg/mL	4 µg/mL	2 µg/mL	2 µg/mL	> 160 µg/mL
CCCCCNC(=O)C[n+]1ccc(SCCCCOc2ccc3ccc(=O)oc3c2CC=C(C)C)cc1.[Br-]	2 µg/mL	4 µg/mL	4 µg/mL	> 128 µg/mL	1 µg/mL	4 µg/mL	2 µg/mL	1 µg/mL	2 µg/mL	4 µg/mL	4 µg/mL	1 µg/mL	> 160 µg/mL
CCCCCNC(=O)C[n+]1ccc(SCCCOc2ccc3ccc(=O)oc3c2CC=C(C)C)cc1.[Br-]	2 µg/mL	2 µg/mL	2 µg/mL	64 µg/mL	2 µg/mL	8 µg/mL	2 µg/mL	8 µg/mL	4 µg/mL	4 µg/mL	2 µg/mL	2 µg/mL	> 160 µg/mL
C[C@@H](O)[C@H]1C(=O)N2C(C(=O)O)=C(S[C@@H]3CN[C@H](C(=O)N(C)C)C3)[C@H](C)[C@H]12 [MEROPENEM]	–	–	–	0.063 µg/mL (≈ 0.164 µM)	–	–	–	–	–	–	–	–	–
CCCN(CCC)C(=O)C[n+]1ccc(SCCCCOc2ccc3ccc(=O)oc3c2CC=C(C)C)cc1.[Br-]	2 µg/mL	2 µg/mL	2 µg/mL	> 128 µg/mL	2 µg/mL	8 µg/mL	2 µg/mL	2 µg/mL	2 µg/mL	4 µg/mL	2 µg/mL	1 µg/mL	> 160 µg/mL
CC(C)=CCc1c(OCCCCCSc2cc[n+](CC(=O)N(C)c3ccccc3)cc2)ccc2ccc(=O)oc12.[Br-]	8 µg/mL	4 µg/mL	4 µg/mL	> 128 µg/mL	2 µg/mL	4 µg/mL	2 µg/mL	2 µg/mL	2 µg/mL	4 µg/mL	2 µg/mL	2 µg/mL	> 160 µg/mL
CCCCN(CCCC)C(=O)C[n+]1ccc(SCCCCCOc2ccc3ccc(=O)oc3c2CC=C(C)C)cc1.[Br-]	2 µg/mL	1 µg/mL	1 µg/mL	> 128 µg/mL	0.5 µg/mL	1 µg/mL	0.5 µg/mL	1 µg/mL	1 µg/mL	1 µg/mL	1 µg/mL	0.5 µg/mL	> 160 µg/mL

Source: ChEMBL document CHEMBL6109153, “Development of Membrane-Targeting Osthole Derivatives Containing Pyridinium Quaternary Ammonium Moieties with Potent Anti-Methicillin-Resistant Staphylococcus aureus Properties” (J Med Chem, 2025)
